The test system of experiment [1] is BMP response element (BRE) luciferase reporter in HuH7 cells, BMP6 stimulated. Put plainly: BMP signaling reporter gene assay. It counts as cell-based. The conditions noted are these: Homo sapiens, Huh-7; HuH7 BRE-luciferase, BMP6 100 ng/ml, 5 hours; read-out: MSD BMP RGA IC50. In general terms: A reporter such as luciferase makes a cellular process visible.
The target of experiment [2] is ALK5 (aa162-503) (Homo sapiens (Human), UniProt P36897). Put plainly: Caliper biochemical peptide phosphorylation assay, ALK5. To be noted: 15 μm ATP, 60 min at 30° C.; read-out: ALK5 EPK (IC50).
Experiment [3] concerns the target ALK6 (aa168-495) (Homo sapiens (Human), UniProt O00238). Put plainly: Caliper biochemical peptide phosphorylation assay, ALK6. The conditions noted are these: 15 μm ATP, 60 min at 30° C.; read-out: ALK6 EPK (IC50).
In experiment [4] the target is ALK1 (aa166-493) (Homo sapiens (Human), UniProt P37023). Description: Caliper biochemical peptide phosphorylation assay, ALK1. The conditions noted are these: 15 μm ATP, 60 min at 30° C.; read-out: ALK1 EPK (IC50).
Experiment [5] addresses T1, wild-type ALK2 (aa172-499) (Homo sapiens (Human), UniProt Q04771). Put plainly: Caliper biochemical peptide phosphorylation assay, ALK2. To be noted: 15 μm ATP, 60 min at 30° C.; read-out: ALK2 EPK (IC50).
In experiment [6] the target is ALK3 (aa198-525) (Homo sapiens (Human), UniProt P36894). Put plainly: ADPGlo biochemical autophosphorylation assay, ALK3. The conditions noted are these: 15 μm ATP, 60 min at 32° C. For orientation: ADP-Glo first removes unused ATP, then detects ADP through luciferase.
The target of experiment [7] is T1, wild-type ALK2 (aa172-499). Put plainly: ADPGlo biochemical autophosphorylation assay, ALK2. The conditions noted are these: 15 μm ATP, 60 min at 32° C.

Sequence of ALK1 (aa166-493) (P37023 166-493): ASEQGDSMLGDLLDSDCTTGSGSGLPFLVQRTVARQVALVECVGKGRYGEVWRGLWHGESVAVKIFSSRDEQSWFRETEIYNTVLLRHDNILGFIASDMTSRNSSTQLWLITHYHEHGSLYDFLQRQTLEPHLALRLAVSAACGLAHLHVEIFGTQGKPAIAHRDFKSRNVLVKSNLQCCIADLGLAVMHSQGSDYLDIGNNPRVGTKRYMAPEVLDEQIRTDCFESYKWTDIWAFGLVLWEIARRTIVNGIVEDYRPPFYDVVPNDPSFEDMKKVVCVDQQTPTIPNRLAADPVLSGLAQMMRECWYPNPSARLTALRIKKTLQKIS
Sequence of ALK5 (aa162-503) (P36897 162-503): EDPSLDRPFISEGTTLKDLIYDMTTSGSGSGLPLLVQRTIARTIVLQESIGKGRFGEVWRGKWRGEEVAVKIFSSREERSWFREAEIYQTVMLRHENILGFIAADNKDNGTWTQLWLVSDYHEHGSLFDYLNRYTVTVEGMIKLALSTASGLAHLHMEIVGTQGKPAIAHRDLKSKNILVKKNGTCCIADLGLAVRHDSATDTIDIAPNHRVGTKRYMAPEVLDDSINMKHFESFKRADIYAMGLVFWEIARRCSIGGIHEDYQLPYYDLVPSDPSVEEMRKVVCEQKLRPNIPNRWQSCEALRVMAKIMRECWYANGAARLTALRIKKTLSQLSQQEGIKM
Sequence of ALK6 (aa168-495) (O00238 168-495): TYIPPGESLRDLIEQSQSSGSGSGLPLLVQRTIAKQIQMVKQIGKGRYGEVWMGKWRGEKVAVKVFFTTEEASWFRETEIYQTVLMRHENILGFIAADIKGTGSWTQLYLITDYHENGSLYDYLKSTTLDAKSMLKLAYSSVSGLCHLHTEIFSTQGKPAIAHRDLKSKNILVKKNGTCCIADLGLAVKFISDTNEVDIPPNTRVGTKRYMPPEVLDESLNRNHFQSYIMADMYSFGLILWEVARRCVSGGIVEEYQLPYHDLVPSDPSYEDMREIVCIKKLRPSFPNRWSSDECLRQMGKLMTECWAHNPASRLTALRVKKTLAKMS
T1 sequence (Q04771 172-499): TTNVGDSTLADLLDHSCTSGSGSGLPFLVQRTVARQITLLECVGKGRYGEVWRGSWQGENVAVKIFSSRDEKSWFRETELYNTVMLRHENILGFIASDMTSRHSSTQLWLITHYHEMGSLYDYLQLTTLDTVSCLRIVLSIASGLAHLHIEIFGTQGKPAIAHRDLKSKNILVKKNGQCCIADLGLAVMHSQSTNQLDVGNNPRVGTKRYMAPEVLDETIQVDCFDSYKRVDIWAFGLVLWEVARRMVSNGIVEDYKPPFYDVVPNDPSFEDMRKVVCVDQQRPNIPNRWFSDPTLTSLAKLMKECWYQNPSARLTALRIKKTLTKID
Sequence of ALK3 (aa198-525) (P36894 198-525): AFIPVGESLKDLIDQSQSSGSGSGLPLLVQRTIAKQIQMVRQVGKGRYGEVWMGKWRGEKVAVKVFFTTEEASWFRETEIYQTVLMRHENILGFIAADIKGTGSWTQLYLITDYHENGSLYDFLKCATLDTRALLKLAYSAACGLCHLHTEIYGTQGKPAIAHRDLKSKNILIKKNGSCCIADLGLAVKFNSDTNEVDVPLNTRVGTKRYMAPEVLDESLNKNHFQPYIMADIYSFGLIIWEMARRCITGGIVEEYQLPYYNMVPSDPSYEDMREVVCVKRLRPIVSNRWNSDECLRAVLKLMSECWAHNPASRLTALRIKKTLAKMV

For the compound `Nc1ncc(-c2ccc([C@]34C[C@H]3CN(CC3COC3)C4)cc2)cc1C(=O)N[C@H]1CC[C@H](O)CC1` [Example 38, 2-amino-N-((1r,4S)-4-hydroxycyclohexyl)-5-(4-((1S,5R)-3-(oxetan-3-ylmethyl)-3-azabicyclo[3.1.0]hexan-1-yl)phenyl)nicotinamide], the IC50 in experiment [1] turned out to be 58 nM; in experiment [2], 1500 nM; in experiment [3], 2600 nM; in experiment [4], 160 nM; in experiment [5], 28 nM; in experiment [6], 1300 nM. This compound also yielded an IC50 in experiment [7] of 7 nM.
With `Nc1ncc(-c2ccc([C@@]34C[C@@H]3CN(C3CCN(CC(F)(F)F)CC3)C4)cc2)cc1C(=O)N[C@H]1CC[C@H](O)CC1` [Example 39, 2-amino-N-((1r,4R)-4-hydroxycyclohexyl)-5-(4-((1R,5S)-3-(1-(2,2,2-trifluoroethyl)piperidin-4-yl)-3-azabicyclo[3.1.0]hexan-1-yl)phenyl)nicotinamide], the 50% inhibitory concentration (IC50) in experiment [1] was found to be 78 nM; in experiment [2] it was 1600 nM; in experiment [3] it was 2000 nM; in experiment [4], 190 nM; in experiment [5] it was 24 nM; in experiment [6], 830 nM. The same compound returned an IC50 in experiment [7] of 13 nM.
Take `Nc1ncc(-c2ccc([C@]34C[C@H]3CN(CCN3CCOCC3)C4)cc2)cc1C(=O)NC12CCC(O)(CC1)CC2` [Example 40, 2-amino-N-(4-hydroxybicyclo[2.2.2]octan-1-yl)-5-(4-((1S,5R)-3-(2-morpholinoethyl)-3-azabicyclo[3.1.0]hexan-1-yl)phenyl)nicotinamide]: the IC50 in experiment [1] was 75 nM; in experiment [2], 3900 nM; in experiment [3], 2850 nM; in experiment [4], 410 nM; in experiment [5], 29 nM; in experiment [6] it was 995 nM. Moreover, the IC50 in experiment [7] came to 32 nM.
For the compound `Nc1ncc(-c2ccc([C@@]34C[C@@H]3CN(CCOCC(F)(F)F)C4)cc2)cc1C(=O)N[C@H]1CC[C@H](O)CC1` [Example 41, 2-amino-N-((1r,4R)-4-hydroxycyclohexyl)-5-(4-((1R,5S)-3-(2-(2,2,2-trifluoroethoxy)ethyl)-3-azabicyclo[3.1.0]hexan-1-yl)phenyl)nicotinamide], the IC50 stood at 158 nM in experiment [1]; 6700 nM in experiment [2]; 6900 nM in experiment [3]; 310 nM in experiment [4]; 23 nM in experiment [5]; 1800 nM in experiment [6]. This compound also yielded an IC50 in experiment [7] of 19 nM.
As to `Nc1ncc(-c2ccc([C@]34C[C@H]3CN(C3CCOCC3)C4)cc2)cc1C(=O)NC12CCC(O)(CC1)CC2` [Example 42, 2-amino-N-(4-hydroxybicyclo[2.2.2]octan-1-yl)-5-(4-((1S,5R)-3-(tetrahydro-2H-pyran-4-yl)-3-azabicyclo[3.1.0]hexan-1-yl)phenyl)nicotinamide], the 50% inhibitory concentration (IC50) was determined as 235 nM in experiment [1]; 4770 nM in experiment [2]; 4100 nM in experiment [3]; 540 nM in experiment [4]; 29 nM in experiment [5]; 1300 nM in experiment [6]. Besides, in experiment [7], the IC50 came out at 26 nM.
With `Nc1ncc(-c2ccc(OCCCN3CCCCC3)cc2)cc1C(=O)NC1CCCCC1` [Example 43, 2-amino-N-cyclohexyl-5-(4-(3-(piperidin-1-yl)propoxy)phenyl)nicotinamide], the IC50 came to 130 nM in experiment [1]; 3500 nM in experiment [2]; 11000 nM in experiment [3]; 765 nM in experiment [4]; 25 nM in experiment [5]; 2350 nM in experiment [6]. The IC50 in experiment [7] worked out at 31 nM.
For `Nc1ncc(-c2ccc([C@@]34C[C@@H]3CN(C3CCS(=O)(=O)CC3)C4)cc2)cc1C(=O)N[C@H]1CC[C@H](O)CC1` [Example 44, 2-amino-5-(4-((1R,5S)-3-(1,1-dioxidotetrahydro-2H-thiopyran-4-yl)-3-azabicyclo[3.1.0]hexan-1-yl)phenyl)-N-((1r,4R)-4-hydroxycyclohexyl)nicotinamide], the IC50 in experiment [1] was found to be 365 nM; in experiment [2] it was 3200 nM; in experiment [3], 2000 nM; in experiment [4], 170 nM; in experiment [5], 24 nM; in experiment [6], 430 nM. In experiment [7], this compound returned an IC50 of 18 nM.
`CN1CCN(C(=O)c2ccc(-c3cnc(N)c(C(=O)NC4CCCCC4)c3)cc2)CC1` [Example 45, 2-amino-N-cyclohexyl-5-(4-(4-methylpiperazine-1-carbonyl)phenyl)nicotinamide]: the IC50 amounted to 365 nM in experiment [1]; 2700 nM in experiment [2]; 4800 nM in experiment [3]; 750 nM in experiment [4]; 25 nM in experiment [5]; 1600 nM in experiment [6]. In experiment [7], this compound showed an IC50 of 20 nM.
For `Nc1ncc(-c2ccc([C@@]34C[C@@H]3CN(CCC(F)(F)F)C4)cc2)cc1C(=O)N[C@H]1CC[C@H](O)CC1` [Example 47, 2-amino-N-((1r,4R)-4-hydroxycyclohexyl)-5-(4-((1R,5S)-3-(3,3,3-trifluoropropyl)-3-azabicyclo[3.1.0]hexan-1-yl)phenyl)nicotinamide], the half-maximal inhibitory concentration (IC50) in experiment [1] came to 130 nM; in experiment [2], 4700 nM; in experiment [3], 3500 nM; in experiment [4], 290 nM; in experiment [5], 25 nM; in experiment [6], 1300 nM. In experiment [7], the IC50 was 21 nM.
In the case of `Nc1ncc(-c2ccc([C@@]34C[C@@H]3CN(CCF)C4)cc2)cc1C(=O)N[C@H]1CC[C@H](O)CC1` [Example 48, 2-amino-5-(4-((1R,5S)-3-(2-fluoroethyl)-3-azabicyclo[3.1.0]hexan-1-yl)phenyl)-N-((1r,4R)-4-hydroxycyclohexyl)nicotinamide], the IC50 in experiment [1] came to 360 nM; in experiment [2], 5300 nM; in experiment [3], 4400 nM; in experiment [4], 120 nM; in experiment [5], 34 nM; in experiment [6] it was 970 nM. The IC50 in experiment [7] was 8 nM.
As for `CC(F)(F)CN1C[C@H]2C[C@@]2(c2ccc(-c3cnc(N)c(C(=O)N[C@H]4CC[C@H](O)CC4)c3)cc2)C1` [Example 50, 2-amino-5-(4-((1R,5S)-3-(2,2-difluoropropyl)-3-azabicyclo[3.1.0]hexan-1-yl)phenyl)-N-((1r,4R)-4-hydroxycyclohexyl)nicotinamide], the IC50 in experiment [1] was 825 nM; in experiment [2], 6400 nM; in experiment [3], 5100 nM; in experiment [4], 500 nM; in experiment [5], 37 nM; in experiment [6], 2400 nM. The 50% inhibitory concentration (IC50) in experiment [7] was 11 nM.
As to `N#CCCN1C[C@@H]2C[C@]2(c2ccc(-c3cnc(N)c(C(=O)N[C@H]4CC[C@H](O)CC4)c3)cc2)C1` [Example 51, 2-amino-5-(4-((1S,5R)-3-(2-cyanoethyl)-3-azabicyclo[3.1.0]hexan-1-yl)phenyl)-N-((1r,4S)-4-hydroxycyclohexyl)nicotinamide], the IC50 was 64 nM in experiment [1]; 1400 nM in experiment [2]; 1700 nM in experiment [3]; 120 nM in experiment [4]; 31 nM in experiment [5]; 780 nM in experiment [6]. The compound further returned an IC50 in experiment [7] of 16 nM.
For `Nc1ncc(-c2ccc(OCCCN3CCOCC3)cc2)cc1C(=O)NC1CCCCC1` [Example 52, 2-amino-N-cyclohexyl-5-(4-(3-morpholinopropoxy)phenyl)nicotinamide], the IC50 in experiment [1] turned out to be 340 nM; in experiment [2], 8600 nM; in experiment [3], 20200 nM; in experiment [4], 970 nM; in experiment [5] it was 31 nM; in experiment [6] it was 2800 nM. This compound registered an IC50 in experiment [7] of 67 nM.
On to `C#CCN1C[C@@H]2C[C@]2(c2ccc(-c3cnc(N)c(C(=O)N[C@H]4CC[C@H](O)CC4)c3)cc2)C1` [Example 53, 2-amino-N-((1r,4S)-4-hydroxycyclohexyl)-5-(4-((1S,5R)-3-(prop-2-yn-1-yl)-3-azabicyclo[3.1.0]hexan-1-yl)phenyl)nicotinamide], for which the IC50 in experiment [1] amounted to 50 nM; in experiment [2], 2000 nM; in experiment [3] it was 2500 nM; in experiment [4], 190 nM; in experiment [5], 32 nM; in experiment [6], 1200 nM. For the same compound, half-maximal inhibition in experiment [7] (IC50) was put at 13 nM.
Regarding `C#CCN1C[C@H]2C[C@@]2(c2ccc(-c3cnc(N)c(C(=O)N[C@H]4CC[C@H](O)CC4)c3)cc2)C1` [Example 54, 2-amino-N-((1r,4R)-4-hydroxycyclohexyl)-5-(4-((1R,5S)-3-(prop-2-yn-1-yl)-3-azabicyclo[3.1.0]hexan-1-yl)phenyl)nicotinamide], the IC50 in experiment [1] stood at 395 nM; in experiment [2], 5300 nM; in experiment [3], 3500 nM; in experiment [4], 140 nM; in experiment [5], 33 nM; in experiment [6], 920 nM. In experiment [7], this compound came in with a 50% inhibitory concentration (IC50) of 11 nM.

A word on the IC50: it is the midpoint of a concentration-inhibition curve.

Values taken from patent US10710980B2, “Aminopyridine derivatives and their use as selective ALK-2 inhibitors” (priority 2016, dated 2020).
